Assay results taken from patent US20220361500A1, “STRIGOLACTONE DERIVATIVES AS PLANT GROWTH REGULATOR COMPOUNDS” (SYNGENTA CROP PROTECTION AG, priority 2020, published 2022).

Tested on: corn leaf discs (variety Multitop)
Assay: Dark induced senescence of corn leaf
Conditions: Zea mays, foliar, 192 h, 100 μM-0.0001 μM, 0.5% DMSO, 23° C., 8 days, image analysis, read-out: IC50 (concentration at which 50% senescence was achieved), dark induced senescence of corn leaf
Method: It is known that strigolactones regulate (accelerate) leaf senescence, potentially through D14 receptor signaling. Corn plants of variety Multitop were grown in a greenhouse with relative 75% humidity and at 23-25° C. for 6 weeks. 1.4 cm diameter leaf discs were placed into 24-well plates containing test compounds in a concentration gradient (100 μM-0.0001 μM) at a final concentration of 0.5% DMSO. Each concentration was tested in 12 replicates. Plates were sealed with seal foil. The foil was pierced to provide gas exchange in each well. The plates were placed into the completely dark climatic chamber. Plates were incubated in the chamber with 75% humidity and at 23° C. for 8 days. On days 0, 5, 6, 7 and 8 photographs were taken of each plate, and image analysis conducted with a macro developed using the ImageJ software. The image analysis was used to determine the concentration at which 50% senescence was achieved (IC50), see Table 4. The lower the value, the higher senescence induction potency.

Row | SMILES | IC50
1 | CC1=CC(O/C=C2/C(=O)OC3Oc4ccccc4C23)OC1=O (centres unmarked) [Compound I-1, (1E)-1-[(4-methyl-5-oxo-2H-furan-2-yl)oxymethylene]-3a,8b-dihydrofuro[2,3-b]benzofuran-2-one] | 0.03 µM
2 | CC1=C(C)C(O/C=C2/C(=O)OC3Oc4ccccc4C23)OC1=O (centres unmarked) [Compound I-2, (1E)-1-[(3,4-dimethyl-5-oxo-2H-furan-2-yl)oxymethylene]-3a,8b-dihydrofuro[2,3-b]benzofuran-2-one] | 0.015 µM
3 | CC1=C(C)C(O/C=C2/C(=O)OC3Sc4ccccc4C23)OC1=O (centres unmarked) [Compound I-8, (1E)-1-[(3,4-dimethyl-5-oxo-2H-furan-2-yl)oxymethylene]-3a,8b-dihydrobenzothiopheno[2,3-b]furan-2-one] | 0.04 µM
4 | CC1=CC(O/C=C2/C(=O)OC3C2c2ccccc2[S+]3[O-])OC1=O (centres unmarked) [Compound I-13, (1E)-1-[(4-methyl-5-oxo-2H-furan-2-yl)oxymethylene]-4-oxo-3a,8b-dihydrobenzothiopheno[2,3-b]furan-2-one] | 0.015 µM
5 | CC1=CC(O/C=C2/C(=O)OC3COc4ccccc4C23)OC1=O (centres unmarked) [Compound I-31, (1E)-1-[(4-methyl-5-oxo-2H-furan-2-yl)oxymethylene]-4,9b-dihydro-3aH-furo[2,3-c]chromen-2-one] | 0.03 µM
